Structures can show the parent of a compound that is named as a salt. Marks after values point to notes of the source that are not given here.

Assay [1] addresses T1, human recombinant 5-HT2C receptor (Homo sapiens, UniProt P28335).
T1 construct: purchased PerkinElmer
T1 sequence (P28335 33-458): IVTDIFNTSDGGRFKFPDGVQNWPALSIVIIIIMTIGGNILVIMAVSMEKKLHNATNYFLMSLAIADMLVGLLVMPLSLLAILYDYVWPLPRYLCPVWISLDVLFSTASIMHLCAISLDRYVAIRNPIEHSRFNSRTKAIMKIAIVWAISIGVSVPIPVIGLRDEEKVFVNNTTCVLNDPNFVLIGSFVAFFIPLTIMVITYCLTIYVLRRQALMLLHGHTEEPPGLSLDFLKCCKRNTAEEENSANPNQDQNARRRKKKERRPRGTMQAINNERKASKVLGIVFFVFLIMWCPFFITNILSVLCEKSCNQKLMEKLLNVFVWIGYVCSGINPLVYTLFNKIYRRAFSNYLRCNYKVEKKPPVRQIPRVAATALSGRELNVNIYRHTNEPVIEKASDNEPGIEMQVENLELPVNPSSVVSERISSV
Kind of assay: Binding affinity for serotonin 5-HT2C receptor ([3H]Mesulergine). To be noted: CHO-K1 membranes, 1.3 nM [3H]Mesulergine; read-out: binding affinity (IC50) 5-HT2C. On the procedure:
(§1) Receptor binding affinities of the compounds for serotonin receptors were measured by the method described in the literature (see [Park W K et al., Pharmacol Biochem Behav., 82(2), 361-372 (2005)].
(§2) The binding affinity (IC50) of a compound for the receptor was calculated by computerized nonlinear regression analysis (GraphPad Prism Program, San Diego, USA) using 7-8 varied concentrations of the compound run in duplicate tubes.
For serotonin 5-HT2C binding, frozen membranes from stable CHO-K1 cell line expressing the human recombinant 5-HT2C receptor (PerkinElmer, 4 μg/well), [^3H]Mesulergine (Amersham, 1.3 nM) and test compounds were added into 50 mM Tris-HCl (pH 7.4) buffer containing 0.1% ascorbic acid and 4 mM CaCl2. Nonspecific binding was determined using 100 μM mianserin. The incubations were performed for 60 min at 27, and these were terminated by rapid filtration through filtermate A glass fiber filter presoaked in 0.5% PEI.

The target of assay [2] is T2, human recombinant serotonin 5-HT2A receptor (Homo sapiens, UniProt P28223).
T2 construct: purchased PerkinElmer Life and Analytical Sciences, USA; host or cells: CHO-K1 cells
The experiment in a line: Binding affinity for serotonin 5-HT2A receptor ([3H]Ketanserin). To be noted: CHO-K1 cells, 1 nM [3H]Ketanserin; read-out: binding affinity (IC50) 5-HT2A. On the procedure: as §1
For serotonin 5-HT2A binding, an aliquot of human recombinant serotonin 5-HT2A receptor (PerkinElmer Life and Analytical Sciences, USA) expressed in CHO-K1 cells (5 μg/well) and 1 nM [^3H]Ketanserin (PerkinElmer) were used in the presence of mianserin (20 μM) as a nonspecific. The reaction mixture was incubated for 60 min […] 50 mM Tris-HCl (pH 7.4) buffer containing 4 mM CaCl2 and 0.1% ascorbic acid, and harvested through filtermate A glass fiber filter (Wallac, Finland) presoaked in 0.5% polyethyleneimine (PEI) by microbeta filtermate-96 harvester (PerkinElmer) to terminate the reaction, and then washed with ice cold 50 mM Tris-HCl buffer solution (pH 7.4). The filter was then covered with MeltiLex, sealed in a sample bag, dried in an oven. The radioactivity retained in the filter was finally counted using MicroBeta Plus (Wallac).
as §2

In assay [3] the test system is mice. The experiment in a line: Anti-depressants activity in forced swimming test. Type of assay: in vivo. To be noted: 60 min before testing.
Protocol: Each mouse was placed in a 25 cm glass cylinder (10 cm diameter) containing 15 cm of water maintained at 22±1, and was forced to swim for 10 min. 24 hours later, the mouse was replaced into the cylinder and the total duration of immobility was recorded during the last 5 min of the 6-min testing period. Mice are judged immobile when they float in an upright position and make only small movements to keep their head above water. Test drugs were suspended in 3% Tween 80 solution, and administered orally (po) 60 min before the testing.
The target in assay [4] is T3, human serotonin transporter (Homo sapiens, UniProt P31645).
T3 construct: purchased PerkinElmer; host or cells: HEK-293 cells
The experiment in a line: Binding affinity for serotonin transporter ([3H]Imipramine). To be noted: HEK-293 membrane, 2 nM [3H]Imipramine; read-out: binding affinity Serotonin Transporter. On the procedure:
For serotonin transporter binding assays, a reaction mixture with a final volume of 0.25 ml was prepared by mixing a test compound, human serotonin transporter membrane expressed in HEK-293 cells (PerkinElmer, 5 μg/well), [^3H] Imipramine (PerkinElmer, 2 nM) and 50 mM Tris-HCl (pH 7.4) buffer containing 120 mM NaCl and 5 mM KCl. The reaction mixture was incubated for 30 min at 27, and harvested through filtermate A glass fiber filter presoaked in 0.5% PEI with ice cold 50 mM Tris-HCl buffer (pH 7.4) containing 0.9% NaCl.

T3 sequence (P31645 whole entry): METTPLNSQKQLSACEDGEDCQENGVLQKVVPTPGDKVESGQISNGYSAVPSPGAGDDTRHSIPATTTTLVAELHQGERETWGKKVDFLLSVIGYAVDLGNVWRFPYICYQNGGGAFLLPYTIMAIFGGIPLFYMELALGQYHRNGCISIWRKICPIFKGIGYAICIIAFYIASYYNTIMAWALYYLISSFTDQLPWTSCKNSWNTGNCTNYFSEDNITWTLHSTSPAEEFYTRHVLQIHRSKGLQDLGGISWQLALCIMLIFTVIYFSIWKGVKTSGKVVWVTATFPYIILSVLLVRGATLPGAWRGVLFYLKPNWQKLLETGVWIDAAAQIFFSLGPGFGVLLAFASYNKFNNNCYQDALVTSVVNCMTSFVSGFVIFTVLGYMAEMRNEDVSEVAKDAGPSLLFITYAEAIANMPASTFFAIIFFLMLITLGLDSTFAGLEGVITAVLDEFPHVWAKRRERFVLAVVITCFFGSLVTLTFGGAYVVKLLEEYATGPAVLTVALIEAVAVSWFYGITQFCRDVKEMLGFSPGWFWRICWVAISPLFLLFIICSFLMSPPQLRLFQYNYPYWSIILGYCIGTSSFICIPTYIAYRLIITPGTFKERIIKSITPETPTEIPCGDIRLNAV
T2 sequence (P28223 whole entry): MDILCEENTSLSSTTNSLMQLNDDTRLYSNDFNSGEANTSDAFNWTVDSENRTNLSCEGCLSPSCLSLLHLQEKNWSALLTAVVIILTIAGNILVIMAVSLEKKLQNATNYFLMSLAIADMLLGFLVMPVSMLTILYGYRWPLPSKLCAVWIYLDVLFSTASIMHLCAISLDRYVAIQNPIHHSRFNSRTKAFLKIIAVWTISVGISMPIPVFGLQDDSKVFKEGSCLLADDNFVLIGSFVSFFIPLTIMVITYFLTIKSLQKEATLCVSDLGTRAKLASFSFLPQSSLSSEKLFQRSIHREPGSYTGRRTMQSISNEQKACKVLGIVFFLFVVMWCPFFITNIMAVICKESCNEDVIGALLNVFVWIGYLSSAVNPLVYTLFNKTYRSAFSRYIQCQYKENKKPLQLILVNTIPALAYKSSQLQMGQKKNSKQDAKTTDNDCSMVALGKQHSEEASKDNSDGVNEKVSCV

As to `Cc1cccc(N2CCN(CCCNc3ncnc4c3nc(-c3ccccc3)n4-c3ccc4c(c3)OCO4)CC2)c1C` [Example 83, 9-(benzo[d][1,3]dioxol-5-yl)-N-(3-(4-(2,3-dimethylphenyl)piperazin-1-yl)propyl)-8-phenyl-9H-purine-6-amine], the IC50 is 198 nM in assay [1], 30 nM in assay [2] and 42 nM in assay [4]. Besides, the “Immobility in forced swimming test” value in assay [3] (25 mg/kg po) was 70.43 ± 6.15%.

As for `CCCc1nc2c(NCCN3CCN(c4cccc(C)c4C)CC3)ncnc2n1-c1ccccc1` [Example 12, N-(2-(4-(2,3-dimethylphenyl)piperazin-1-yl)ethyl)-9-phenyl-8-propyl-9H-purine-6-amine], the IC50 worked out at 147 nM in assay [1], 13 nM in assay [2] and 93 nM in assay [4]. The “Immobility in forced swimming test” value in assay [3] (25 mg/kg po) is recorded as 94.69 ± 12.46%.

Turning to `CCc1nc2c(NCC(O)CN3CCN(c4cccc(C)c4C)CC3)ncnc2n1-c1ccc2c(c1)OCO2` (stereo not shown) [Example 40, 1-(9-(benzo[d][1,3]dioxol-5-yl)-8-ethyl-9H-purin-6-ylamino)-3-(4-(2,3-dimethylphenyl)piperazin-1-yl)propan-2-ol], the IC50 in assay [1] was 713 nM; in assay [2], 125 nM; in assay [4], 18 nM. In assay [3] (25 mg/kg po), the “Immobility in forced swimming test” value is given as 98.20 ± 10.00%.

`Cc1cccc(N2CCN(CCCNc3ncnc4c3nc(C)n4C)CC2)c1C` [Example 28, N-(3-(4-(2,3-dimethylphenyl)piperazin-1-yl)propyl)-8,9-dimethyl-9H-purine-6-amine]: the IC50 in assay [1] was found to be 430 nM; in assay [2], 65 nM; in assay [4] it was 85 nM. Also, the “Immobility in forced swimming test” value in assay [3] (25 mg/kg po) turned out to be 87.65 ± 7.08%.

With `Cc1cccc(N2CCN(CCNc3ncnc4c3nc(-c3ccccc3)n4-c3ccccc3)CC2)c1C` [Example 18, N-(2-(4-(2,3-dimethylphenyl)piperazin-1-yl)ethyl)-8,9-diphenyl-9H-purine-6-amine], the IC50 in assay [1] stood at 216 nM; in assay [2] it was 28 nM; in assay [4], 575 nM. In addition, in assay [3] (25 mg/kg po), the “Immobility in forced swimming test” value is recorded as 89.98 ± 11.45%.

As for `Cc1cccc(N2CCN(CC(O)CNc3ncnc4c3nc(C)n4-c3ccc4c(c3)OCCO4)CC2)c1C` (stereo not shown) [Example 44, 1-(9-(2,3-dihydrobenzo[b][1,4]dioxin-6-yl)-8-methyl-9H-purin-6-ylamino)-3-(4-(2,3-dimethylphenyl)piperazin-1-yl)propan-2-ol], the IC50 was 510 nM in assay [1], 54 nM in assay [2] and 65 nM in assay [4]. Also, the “Immobility in forced swimming test” value in assay [3] (25 mg/kg po) turned out to be 80.41 ± 7.04%.

For the compound `Cc1cccc(N2CCN(CCCNc3ncnc4c3nc(C)n4-c3ccc(C(F)(F)F)cc3)CC2)c1C` [Example 76, N-(3-(4-(2,3-dimethylphenyl)piperazin-1-yl)propyl)-8-methyl-9-(4-(trifluoromethyl)phenyl)-9H-purine-6-amine], the IC50 amounted to 453 nM in assay [1], 43.1 nM in assay [2] and 128 nM in assay [4]. In addition, the “Immobility in forced swimming test” value in assay [3] (25 mg/kg po) is 79.98 ± 7.42%; in assay [3] (50 mg/kg po), 90.13 ± 4.29%.

Take `Cc1cccc(N2CCN(CCCNc3ncnc4c3ncn4-c3ccc4c(c3)OCO4)CC2)c1C` [Example 34, 9-(benzo[d][1,3]dioxol-5-yl)-N-(3-(4-(2,3-dimethylphenyl)piperazin-1-yl)propyl)-9H-purine-6-amine]: the IC50 in assay [1] came out at 230 nM; in assay [2], 54 nM; in assay [4], 6 nM. For the same compound, the “Immobility in forced swimming test” value was 76.92 ± 10.04% in assay [3] (25 mg/kg po) and 96.83 ± 11.02% in assay [3] (50 mg/kg po).

Regarding `CNCCC(Oc1ccc(C(F)(F)F)cc1)c1ccccc1` (stereo not shown) [Fluoxetine, reference compound], the “Immobility in forced swimming test” value is 70.4^b % in assay [3] (50 mg/kg po) and 59.5^b % in assay [3] (100 mg/kg po).

As for `Cc1cccc(N2CCN(CCCNc3ncnc4c3nc(C)n4-c3ccc4c(c3)OCO4)CC2)c1C` [Example 36, 9-(benzo[d][1,3]dioxol-5-yl)-N-(3-(4-(2,3-dimethylphenyl)piperazin-1-yl)propyl)-8-methyl-9H-purine-6-amine], the IC50 in assay [1] is 285 nM; in assay [2], 29 nM; in assay [4], 4 nM. Also, the “Immobility in forced swimming test” value in assay [3] (25 mg/kg po) was 79.93 ± 13.23%; in assay [3] (50 mg/kg po), 86.77 ± 11.28%.

Take `CSc1ccc(-n2c(C)nc3c(NCCN4CCN(c5cccc(C)c5C)CC4)ncnc32)cc1` [Example 85, N-(2-(4-(2,3-dimethylphenyl)piperazin-1-yl)ethyl)-8-methyl-9-(4-(methylthio)phenyl)-9H-purine-6-amine hydrochloride]: the IC50 amounted to 70 nM in assay [1], 9.6 nM in assay [2] and 362 nM in assay [4].

On to `CCc1nc2c(NCCN3CCN(c4cccc(C)c4C)CC3)ncnc2n1-c1ccc(F)cc1` [Example 56, N-(2-(4-(2,3-dimethylphenyl)piperazin-1-yl)ethyl)-8-ethyl-9-(4-fluorophenyl)-9H-purine-6-amine], for which the results for the IC50 in assay [1], in assay [2] and in assay [4] were 76.5 nM, 7.5 nM and 146 nM, respectively. Further, the “Immobility in forced swimming test” value in assay [3] (25 mg/kg po) is given as 71.41 ± 10.84%; in assay [3] (50 mg/kg po), 77.46 ± 12.27%.

Turning to `Cc1cccc(N2CCN(CCCNc3ncnc4c3nc(-c3cccs3)n4-c3ccccc3)CC2)c1C.Cl` [Example 92, N-(3-(4-(2,3-dimethylphenyl)piperazin-1-yl)propyl)-9-phenyl-8-(thiophen-2-yl)-9H-purine-6-amine hydrochloride], the IC50 in assay [1] was determined as 301 nM; in assay [2] it was 17 nM; in assay [4], 38.9 nM. Also, the “Immobility in forced swimming test” value in assay [3] (25 mg/kg po) turned out to be 85.86 ± 8.90%.

For the compound `Cc1cccc(N2CCN(CCCNc3ncnc4c3ncn4-c3ccccc3)CC2)c1C` [Example 13, N-(3-(4-(2,3-dimethylphenyl)piperazin-1-yl)propyl)-9-phenyl-9H-purine-6-amine], the IC50 was 294 nM in assay [1], 56 nM in assay [2] and 35 nM in assay [4]. Further, in assay [3] (25 mg/kg po), the “Immobility in forced swimming test” value was determined as 89.81 ± 7.14%.

For `Cc1cccc(N2CCN(CCCNc3ncnc4c3ncn4-c3ccc4c(c3)OCCO4)CC2)c1C` [Example 41, 9-(2,3-dihydrobenzo[b][1,4]dioxin-6-yl)-N-(3-(4-(2,3-dimethylphenyl)piperazin-1-yl)propyl)-9H-purine-6-amine], the IC50 in assay [1] stood at 224 nM; in assay [2], 16 nM; in assay [4], 7 nM. Moreover, the “Immobility in forced swimming test” value in assay [3] (25 mg/kg po) is listed as 105.95 ± 4.92%.

Regarding `Cc1cccc(N2CCN(CCCNc3ncnc4c3nc(-c3ccccc3)n4-c3ccc(F)cc3)CC2)c1C` [Example 79, N-(3-(4-(2,3-dimethylphenyl)piperazin-1-yl)propyl)-9-(4-fluorophenyl)-8-phenyl-9H-purine-6-amine], the IC50 is 303 nM in assay [1], 43 nM in assay [2] and 67 nM in assay [4].

With `Cc1c(Cl)cccc1N1CCN(CCCNc2ncnc3c2nc(-c2ccccc2)n3-c2ccccc2)CC1` [Example 67, N-(3-(4-(3-chloro-2-methylphenyl)piperazin-1-yl)propyl)-8,9-diphenyl-9H-purine-6-amine], the IC50 in assay [1] came out at 247 nM; in assay [2] it was 42 nM; in assay [4] it was 96 nM.
